Experimental data as given in US20260049078A1, “DIFLUORO- AND TRIFLUORO-ACETYL HYDRAZIDES AS SELECTIVE HDAC6 INHIBITORS” (ITALFARMACO S.P.A., priority 2022, published 2026).
Values belong to the molecule of their own block, whether it stands above or below them.

Key:
[1] = molecular target: zHDAC6-CD2 wt (Danio rerio (Zebrafish) (Brachydanio rerio), UniProt F8W4B7); assay: Isolation of long-lived/tight complex (spin column chromatography with LC-HRMS); assay type: binding; conditions: zHDAC6-CD2 wt 1 μM, compound 5 μM, 6 hours, Bio-Spin P-6
Procedure: Rapid chromatography on spin columns coupled to LC-HRMS was used to attempt the isolation of long-lived/tight complexes between HDAC6 and examples 1 and 1-A. zHDAC6-CD2 wt (1 μM) was incubated with 1 (5 μM) or 1-A (also 5 μM) as described before for 6 hours. An aliquot (60 μL) was loaded on a Bio-Spin P-6 Gel Column (Bio-Rad) that had been equilibrated with assay buffer in order to separate the HDAC6-inhibitors complexes from free compounds. After centrifugation to elute the initial fraction containing most of the enzyme, ten 200 μL aliquots were applied and eluted by centrifugation to collect the low molecular weight (free) compounds. Aliquots of the fractions were subjected to LC-HRMS analysis (as described above) for identification and quantitation of 1 and its derivatives.

[2] = system: HDAC6; assay: Kinetic of prodrug disappearing when incubated with HDAC6 (LC-HRMS); assay type: biochemical; conditions: HDAC6 1 μM, 5 μM compound, 25° C.; for half-life at 5 µM: HDAC6 enzyme in assay buffer, read-out: T1/2 of prodrug disappearing
Procedure: The LC-HRMS analysis was carried out using a Vanquish Flex UHPLC (Thermo Fisher Scientific) and a high-resolution mass spectrometer Orbitrap QExactive Focus (Thermo Fisher Scientific), equipped with a Heated Electrospray Ionization, operated in positive mode. A Full Scan analysis was set in the m/z range 50-500 amu. A XSelect HSS T3 50×2.1 mm, 2.5 μm chromatographic column (Waters) was used. Mobile phase A consisted of 0.1% formic acid in water and mobile phase B in 0.1% formic acid in acetonitrile. The flow rate was set to 0.5 mL/min, with a gradient program from 3 to 20% B in 3 minutes.

[3] = system: murine neuroblastoma N2a cell lines; assay: In vitro α-tubulin acetylation in N2a cell line; assay type: cell-based; conditions: N2a cells, 16 hours; dose of the tabulated value not stated (tested at 10 μM, 1 μM and 0.1 μM)
Procedure: The in vitro α-tubulin acetylation was evaluated on murine neuroblastoma N2a cell lines.
Cells were maintained in Eagle's Minimum Essential Medium (ATCC, cat: 30-2003) supplemented with 10% fetal bovine serum—FBS (Gibco, cat: 10270-106).
Cells were plated in 12-well plates (Costar, cat: 3512) at the density of 6×10^4 cells/cm^2, respectively. The test compounds were prepared as 20× concentrated medium solutions in respect to the final concentrations. The cells were treated the following day. The compounds were tested at 3 doses: 10 μM, 1 μM and 0.1 μM. The final DMSO content was set as 0.5%. The cells were incubated with the compounds at 37° C. for 16 hours.
At the end of the incubation period, the cells were harvested and centrifuged for 5 minutes at 200×g and washed with 0.9% NaCl at 4° C. The resulting pellet was treated for 30 minutes at 4° C. with 100 μl Complete Lysis-M buffer containing protease inhibitors (Complete Lysis-M Roche+Complete Tablets, Mini Easypack, cat: 4719956001) and phosphatase inhibitor cocktails (PhosStop Easypack, Roche, cat: 4906837001) and then centrifuged 10 minutes at 18213×g. The protein concentration in each supernatant was determined using BCA Protein Assay Kit (Pierce, cat: 23227). The samples were diluted in PBS 1× to obtain 2 μg/ml concentration and coated in MaxiSorp 96-well plates (Nunc, cat: 442404). The plates were incubated overnight at room temperature, then washed twice with Wash Buffer (PBS 1×+0.005% tween 20) and saturated for 1 hour at room temperature with 300 μL of 1×PBS containing 10% FBS. After washing twice with Wash Buffer, the plates were incubated for 2 hours at room temperature in the presence of 100 μl/well either anti-acetylated-α-tubulin antibody (Monoclonal Anti-Tubulin, Acetylated antibody produced in mouse, Sigma-Aldrich, cat: T6793) or total anti-α-tubulin antibody (Monoclonal Anti-α-Tubulin produced in mouse, Sigma-Aldrich, cat: T6074) diluted 1:1000 in 1×PBS containing 10% FBS. Following 5 washing cycles with Wash Buffer, the secondary antibody conjugated with the enzyme HRP (Goat anti-Mouse IgG, IgM, IgA (H+L), stock concentration 0.5 mg/ml, Thermo Fisher Scientific, cat: A10668), diluted 1:1000 in 1×PBS+10% FBS was added at the volume of 100 μl/well. After two hours of incubation at room temperature the plates were washed 4 times with Wash Buffer, then 100 μl/well of TMB substrate (TMB substrate kit, Thermo Fisher Scientific, cat: 34021) was added for 15 minutes at room temperature in the dark. The reaction was stopped by adding 50 μl of 2M H2SO4. The plates were read in BioTek Synergy H1 multimode microplate reader at a wavelength of 450 nm.
The measured absorbance was corrected by subtracting the mean of blank values (samples without the primary antibody). The absorbance ratios of acetyl to total tubulin assays were calculated and normalized to the reference compound (positive control) 4 parameter logistic curve, where 100% is the fitted top of the curve and 0% is DMSO control (protein extract obtained from non-treated cells). The results are expressed as fold increase compared to the control (DMSO).

Sequence of zHDAC6-CD2 wt (F8W4B7 entry or part of it del 1-439/del 799-1081 limits assumed): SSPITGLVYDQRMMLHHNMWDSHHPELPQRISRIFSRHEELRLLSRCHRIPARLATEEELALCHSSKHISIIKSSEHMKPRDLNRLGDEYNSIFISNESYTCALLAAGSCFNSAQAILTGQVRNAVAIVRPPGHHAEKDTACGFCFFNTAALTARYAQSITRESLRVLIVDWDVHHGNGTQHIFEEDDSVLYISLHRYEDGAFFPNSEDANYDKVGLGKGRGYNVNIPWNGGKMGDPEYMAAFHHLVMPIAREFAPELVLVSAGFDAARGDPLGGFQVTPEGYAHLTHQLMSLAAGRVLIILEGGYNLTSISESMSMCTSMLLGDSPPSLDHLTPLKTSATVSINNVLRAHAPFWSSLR

co-elution with the enzyme (fraction 1) [1]: behaves as a prodrug
SMILES: FC(F)c1nnc(-c2ccc(Cn3cc(-c4ccc(NC5=NCCN5)cc4)nn3)cc2)o1 [Compound 1-A]

half-life at 5 µM [2]: 1.29 h
SMILES: Nc1nc2ccc(-c3cn(Cc4ccc(-c5nnc(C(F)F)o5)cc4F)nn3)cc2s1 [Compound 2-A]
percentage of compound concentration (prodrug remaining) ([2]; time 0 min): 100.00%
percentage of compound concentration (prodrug remaining) ([2]; time 30 min): 73.1%
percentage of compound concentration (prodrug remaining) ([2]; time 60 min): 53.6%
percentage of compound concentration (prodrug remaining) ([2]; time 120 min): 31.1%
percentage of compound concentration (prodrug remaining) ([2]; time 240 min): 11.1%
percentage of compound concentration (prodrug remaining) ([2]; time 360 min): 3.9%
percentage of compound concentration (prodrug remaining) ([2]; time 480 min): 1.3%

SMILES: FC(F)c1nnc(-c2ccc(Cn3cc(-c4ccccc4)nn3)nc2)o1 [Compound 13-A]
Tubulin acetylation Fold increase compared to control [3]: 6 fold

SMILES: Fc1ccccc1-c1cn(Cc2ccc(-c3nnc(C(F)F)o3)cn2)nn1 [Compound 14-A]
Tubulin acetylation Fold increase compared to control [3]: 7 fold

SMILES: FC(F)c1nnc(-c2ccc(Cn3cc(-c4ccccn4)nn3)nc2)o1 [Compound 20-A]
Tubulin acetylation Fold increase compared to control [3]: 15 fold

SMILES: Nc1nc2ccc(-c3cn(Cc4ccc(-c5nnc(C(F)F)o5)cc4)nn3)cc2s1 [Compound 32-A]
Tubulin acetylation Fold increase compared to control [3]: 20 fold

half-life at 5 µM [2]: 1.24 h
SMILES: Nc1nc2ccc(-c3cn(Cc4ccc(-c5nnc(C(F)F)o5)cc4Cl)nn3)cc2s1 [Compound 37-A]
percentage of compound concentration (prodrug remaining) ([2]; time 0 min): 100.00%
percentage of compound concentration (prodrug remaining) ([2]; time 30 min): 88.1%
percentage of compound concentration (prodrug remaining) ([2]; time 60 min): 69.2%
percentage of compound concentration (prodrug remaining) ([2]; time 120 min): 38.4%
percentage of compound concentration (prodrug remaining) ([2]; time 240 min): 12.1%
percentage of compound concentration (prodrug remaining) ([2]; time 360 min): 3.7%
percentage of compound concentration (prodrug remaining) ([2]; time 480 min): 1.3%
Tubulin acetylation Fold increase compared to control [3]: 31 fold

SMILES: Nc1nc2ccc(-c3cn(Cc4ccc(-c5nnc(C(F)F)o5)cn4)nn3)cc2s1 [Compound 38-A]
Tubulin acetylation Fold increase compared to control [3]: 22 fold

SMILES: Nc1nc2ccc(C3CN(Cc4ccc(C(=O)NNC(=O)C(F)F)s4)N=N3)cc2s1 (stereo not drawn) [Compound 48-A]
Tubulin acetylation Fold increase compared to control [3]: 45 fold
